One assay concerns Ba/F3-NRAS-G12D cells. The assay is described as follows: Anti-proliferation assay (CellTiter Glo) on Ba/F3-NRAS-G12D. The format is cell-based. As to conditions: 72 h treatment, average with SD (n = 3, duplicate). On the procedure:
(§1) Ba/F3-parental, OCI-AML3, U397 cells were purchased from DSMZ. MDA-MB-231, HCT-116, AsPC-1, H358, HT-29, SW480, and DU-145 cells were obtained from KCLB. MDA-MB-468 cells were obtained from ATCC. All cells were maintained in RPMI with 10% FBS and antibiotics. Cells were grown in a humidified 5% CO2 incubator at 37°C. Ba/F3-parental cells were grown in the presence of 10 ng/ml IL-3. NRAS-G12D or NRAS-G12V transformed Ba/F3 cell lines (Ba/F3-NRAS-G12D, and Ba/F3-NRAS-G12V, respectively) were cultured without IL-3, which were established by the procedure described as previously ([30]).
(§2) Approximately 3.0 × 10^3 cells/well were seeded in a 96-well cell culture plate. After stabilization, 1/3 serially diluted compound in DMSO was treated to the cell. […] All GI50 values were obtained in duplicate with three independent assays and averages with standard deviation are presented.
In general terms: In ATP-based viability assays light output follows the ATP content of the culture.

Another assay deals with OCI-AML3 (NRAS-Q61L). The assay is described as follows: Anti-proliferation assay on OCI-AML3. The format is cell-based, human. As to conditions: 72 h treatment, average with SD (n = 3, duplicate). On the procedure:
as §1, §2

The next assay concerns H358 (KRAS-G12C). The assay is described as follows: Anti-proliferation assay on H358. The format is cell-based. To be noted: 72 h treatment, average with SD (n = 3, duplicate). On the procedure: as §1, §2
Another assay has as its system Ba/F3-parental cells. The assay is described as follows: Anti-proliferation assay (CellTiter Glo) on Ba/F3-parental. The format is cell-based. As to conditions: 72 h treatment, with 10 ng/ml IL-3, average with SD (n = 3, duplicate). On the procedure: as §1, §2
In the next assay the test system is HT-29 (KRAS-Q61L). The assay is described as follows: Anti-proliferation assay on HT-29. It is filed as cell-based. To be noted: 72 h treatment, average with SD (n = 3, duplicate). On the procedure: as §1, §2
The next assay has as its system AsPC-1 (KRAS-G12D). The assay is described as follows: Anti-proliferation assay on AsPC-1. It is filed as cell-based. As to conditions: 72 h treatment, average with SD (n = 3, duplicate). On the procedure: as §1, §2
A further assay concerns SW480 (KRAS-G12V). The assay is described as follows: Anti-proliferation assay on SW480. To be noted: 72 h treatment, average with SD (n = 3, duplicate). It is filed as cell-based. On the procedure:
as §1, §2

Another assay concerns U937 (KRAS, NRAS-wt). The assay is described as follows: Anti-proliferation assay on U937. The format is cell-based. To be noted: 72 h treatment, average with SD (n = 3, duplicate). On the procedure: as §1, §2
The next assay has as its system HCT-116 (KRAS-G13D). The assay is described as follows: Anti-proliferation assay on HCT-116. As to conditions: 72 h treatment, average with SD (n = 3, duplicate). The format is cell-based. On the procedure: as §1, §2
The test system of assay [1] is MDA-MB-468 (KRAS, NRAS-wt). The assay is described as follows: Anti-proliferation assay on MDA-MB-468. To be noted: 72 h treatment, average with SD (n = 3, duplicate). It is filed as cell-based. The method, then:
as §1, §2

Another assay has as its system MDA-MB-231 (KRAS-G13D). The assay is described as follows: Anti-proliferation assay on MDA-MB-231. It is filed as cell-based. To be noted: 72 h treatment, average with SD (n = 3, duplicate). On the procedure: as §1, §2
The next assay has as its system Ba/F3-NRAS-G12V cells. The assay is described as follows: Anti-proliferation assay (CellTiter Glo) on Ba/F3-NRAS-G12V. The format is cell-based. As to conditions: 72 h treatment, average with SD (n = 3, duplicate). The method, then:
as §1, §2

The subject of the next assay is DU-145 (KRAS-G12V). The assay is described as follows: Anti-proliferation assay on DU-145. It is filed as cell-based. To be noted: 72 h treatment, average with SD (n = 3, duplicate). The method, then: as §1, §2
In a further assay the test system is mtKRAS NSCLC cell. More on the design: method as in earlier work. To be noted: ACK1 inhibitor; ref 37 (Tan et al.); cited from earlier work.

Some results are limits rather than exact numbers.

We go through six compounds from publication PMC8695447, “Novel Small Molecules Capable of Blocking mtRAS-Signaling Pathway” (Frontiers in Oncology, 2021).

For `Cc1ccc(NC(=O)c2cccc(C(F)(F)F)c2)cc1N1Cc2cnc(Nc3cnn(C)c3)nc2N(C)C1=O` [Compound 10, N-(4-Methyl-3-(1-methyl-7-((1-methyl-1H-pyrazol-4-yl)amino)-2-oxo-1,4-dihydropyrimido[4,5-d]pyrimidin-3(2H)-yl)phenyl)-3-(trifluoromethyl)benzamide], the 50% growth inhibitory concentration (GI50) (usually the concentration that inhibits growth by half) in the assay on Ba/F3-NRAS-G12D cells (Mus musculus, BaF3) was 193 ± 7 nM; in the assay with OCI-AML3 (NRAS-Q61L) (Homo sapiens, OCI-AML-3) it was 59 ± 7 nM; in the assay with H358 (KRAS-G12C) (Homo sapiens, NCI-H358) it was 130 ± 9 nM; in the assay on Ba/F3-parental cells (Mus musculus, BaF3), 630 ± 104 nM; in the assay with HT-29 (KRAS-Q61L) (Homo sapiens, HT-29), 366 ± 152 nM; in the assay on AsPC-1 (KRAS-G12D) (Homo sapiens, ASPC1), 105 ± 34 nM. In addition, the GI50 was 275 ± 29 nM with SW480 (KRAS-G12V) (Homo sapiens, SW480); 2700 ± 668 nM with U937 (KRAS, NRAS-wt) (Homo sapiens, U-937); 68 ± 28 nM in the assay with HCT-116 (KRAS-G13D) (Homo sapiens, HCT-116); above 50000 nM in assay [1] (Homo sapiens, MDA-MB-468); 50 ± 12 nM with MDA-MB-231 (KRAS-G13D) (Homo sapiens, MDA-MB-231); 280 ± 79 nM in the assay with Ba/F3-NRAS-G12V cells (Mus musculus, BaF3). Besides, halving of growth with DU-145 (KRAS-G12V) (Homo sapiens, DU-145) (GI50) required 51 ± 46 nM.
As to `Cc1ccc(NC(=O)c2cccc(C(F)(F)F)c2)cc1N1Cc2cnc(Nc3ccn(C)n3)nc2N(C)C1=O` [Compound 11, N-(4-Methyl-3-(1-methyl-7-((1-methyl-1H-pyrazol-3-yl)amino)-2-oxo-1,4-dihydropyrimido[4,5-d]pyrimidin-3(2H)-yl)phenyl)-3-(trifluoromethyl)benzamid], the GI50 in the assay on Ba/F3-NRAS-G12D cells (Mus musculus, BaF3) worked out at 185 ± 15 nM; in the assay with OCI-AML3 (NRAS-Q61L) (Homo sapiens, OCI-AML-3) it was 103 ± 1 nM; in the assay on H358 (KRAS-G12C) (Homo sapiens, NCI-H358), 240 ± 42 nM; with Ba/F3-parental cells (Mus musculus, BaF3) it was 1160 ± 330 nM; with HT-29 (KRAS-Q61L) (Homo sapiens, HT-29), 355 ± 54 nM; in the assay on AsPC-1 (KRAS-G12D) (Homo sapiens, ASPC1) it was 318 ± 10 nM. Also, the GI50 in the assay with SW480 (KRAS-G12V) (Homo sapiens, SW480) was 286 ± 39 nM; in the assay on U937 (KRAS, NRAS-wt) (Homo sapiens, U-937) it was 7000 ± 1120 nM; with HCT-116 (KRAS-G13D) (Homo sapiens, HCT-116) it was 45 ± 16 nM; in assay [1] (Homo sapiens, MDA-MB-468), above 50000 nM; in the assay on MDA-MB-231 (KRAS-G13D) (Homo sapiens, MDA-MB-231), 108 ± 26 nM; in the assay with Ba/F3-NRAS-G12V cells (Mus musculus, BaF3), 259 ± 126 nM. Further, the GI50 in the assay with DU-145 (KRAS-G12V) (Homo sapiens, DU-145) was found to be 89 ± 47 nM.
For the compound `COCCn1cc(Nc2ncc3c(n2)N(C)C(=O)N(c2cc(NC(=O)c4cccc(C(F)(F)F)c4)ccc2C)C3)cn1` [Compound 12, N-(3-(7-((1-(2-Methoxyethyl)-1H-pyrazol-4-yl)amino)-1-methyl-2-oxo-1,4-dihydropyrimido[4,5-d]pyrimidin-3(2H)-yl)-4-methylphenyl)-3-(trifluoromethyl)benzamide], the 50% growth inhibitory concentration (GI50) turned out to be 122 ± 1 nM with Ba/F3-NRAS-G12D cells (Mus musculus, BaF3); 46 ± 16 nM in the assay on OCI-AML3 (NRAS-Q61L) (Homo sapiens, OCI-AML-3); 106 ± 12 nM with H358 (KRAS-G12C) (Homo sapiens, NCI-H358); 1160 ± 424 nM with Ba/F3-parental cells (Mus musculus, BaF3); 131 ± 4 nM with HT-29 (KRAS-Q61L) (Homo sapiens, HT-29); 275 ± 47 nM with AsPC-1 (KRAS-G12D) (Homo sapiens, ASPC1). In addition, the GI50 with SW480 (KRAS-G12V) (Homo sapiens, SW480) was 532 ± 150 nM; in the assay with U937 (KRAS, NRAS-wt) (Homo sapiens, U-937) it was 934 ± 57 nM; in the assay with HCT-116 (KRAS-G13D) (Homo sapiens, HCT-116) it was 66 ± 55 nM; in [1] (Homo sapiens, MDA-MB-468) it was above 50000 nM; in the assay with MDA-MB-231 (KRAS-G13D) (Homo sapiens, MDA-MB-231), 71 ± 18 nM; in the assay on Ba/F3-NRAS-G12V cells (Mus musculus, BaF3), 216 ± 5 nM. In the assay with DU-145 (KRAS-G12V) (Homo sapiens, DU-145), this compound had a concentration for 50% growth inhibition (GI50) of 34 ± 25 nM.
Regarding `CCN1CCC(n2cc(Nc3ncc4c(n3)N(C)C(=O)N(c3cc(NC(=O)c5cccc(C(F)(F)F)c5)ccc3C)C4)cn2)CC1` [Compound 13, N-(3-(7-((1-(1-Ethylpiperidin-4-yl)-1H-pyrazol-4-yl)amino)-1-methyl-2-oxo-1,4-dihydropyrimido[4,5-d]pyrimidin-3(2H)-yl)-4-methylphenyl)-3-(trifluoromethyl)benzamide], the 50% growth inhibitory concentration (GI50) in the assay with Ba/F3-NRAS-G12D cells (Mus musculus, BaF3) was found to be 114 ± 18 nM; in the assay on OCI-AML3 (NRAS-Q61L) (Homo sapiens, OCI-AML-3) it was 36 ± 7 nM; with H358 (KRAS-G12C) (Homo sapiens, NCI-H358), 147 ± 31 nM; with Ba/F3-parental cells (Mus musculus, BaF3), 889 ± 61 nM; with HT-29 (KRAS-Q61L) (Homo sapiens, HT-29), 164 ± 2 nM; in the assay with AsPC-1 (KRAS-G12D) (Homo sapiens, ASPC1) it was 186 ± 22 nM. For the same compound, the GI50 in the assay with SW480 (KRAS-G12V) (Homo sapiens, SW480) stood at 269 ± 61 nM; in the assay with U937 (KRAS, NRAS-wt) (Homo sapiens, U-937), 690 ± 35 nM; with HCT-116 (KRAS-G13D) (Homo sapiens, HCT-116) it was 77 ± 27 nM; in [1] (Homo sapiens, MDA-MB-468) it was 16200 ± 6020 nM; in the assay with MDA-MB-231 (KRAS-G13D) (Homo sapiens, MDA-MB-231), 55 ± 20 nM; with Ba/F3-NRAS-G12V cells (Mus musculus, BaF3), 130 ± 28 nM. The same compound yielded a 50% growth inhibitory concentration (GI50) in the assay on DU-145 (KRAS-G12V) (Homo sapiens, DU-145) of 76 ± 26 nM.
For the compound `Cc1ccc(Nc2ncc3c(n2)N(C)C(=O)N(c2cc(NC(=O)c4cccc(C(F)(F)F)c4)ccc2C)C3)cn1` [GNF-7, reference compound], the GI50 came to 250 ± 26 nM in the assay with Ba/F3-NRAS-G12D cells; 229 ± 10 nM in the assay with OCI-AML3 (NRAS-Q61L); 922 ± 93 nM in the assay with H358 (KRAS-G12C); 923 ± 59 nM in the assay on Ba/F3-parental cells; 938 ± 34 nM in the assay with HT-29 (KRAS-Q61L); 448 ± 27 nM in the assay on AsPC-1 (KRAS-G12D). Further, the GI50 was 760 ± 63 nM with SW480 (KRAS-G12V); 4780 ± 926 nM in the assay with U937 (KRAS, NRAS-wt); 169 ± 61 nM in the assay with HCT-116 (KRAS-G13D); above 50000 nM in assay [1]; 296 ± 39 nM in the assay with MDA-MB-231 (KRAS-G13D); 396 ± 36 nM in the assay with Ba/F3-NRAS-G12V cells. Further, in the assay with DU-145 (KRAS-G12V), halving of growth (GI50) required 288 ± 57 nM.
Take `COc1cc(Nc2c(C#N)cnc3cc(OCCCN4CCN(C)CC4)c(OC)cc23)c(Cl)cc1Cl` [bosutinib]: the “mtKRAS NSCLC cell migration and invasion” value in the assay with mtKRAS NSCLC cell is given as “suppressed”.
